The source of these data is patent publication US20260294865A1, “AUTOPHAGY ACTIVATOR AND AUTOPHAGY ACTIVATION COMPOSITION” (MARUZEN PHARMACEUTICALS CO., LTD., priority 2023, published 2026).

This test relates to HeLa cells stably expressing tfLC3. Description: tfLC3 test (autophagy activity, GFP/RFP ratio). The following applies: for Ratio with respect to DMSO (GFP/RFP value, negative control taken as 1): final concentration 10 μM, 24 hours, HeLa cells stably expressing tfLC3, negative control 0.1% DMSO = 1, lower value = autophagy activation; for autophagy activation effect (in words): tfLC3 test, GFP/RFP ratio lower than negative control. In kind it is cell-based. An excerpt:
An autophagy activation effect was examined by a tfLC3 test using the compound represented by the structural formula (1) (manufactured by INDOFINE Chemical Company) and the compound represented by the structural formula (2) (manufactured by INDOFINE Chemical Company) as test samples.
The tfLC3 test is a test performed by using tfLC3, in which LC3 that is an autophagosome marker protein is tandemly tagged with fluorescent proteins mRFP (RFP: Red Fluorescent Protein) and EGFP (GFP: Green Fluorescent Protein) (Autophagy 2007; 3:452-460. (PubMed: 17534139) DOI: 10.4161/auto. 4451).
In a cell undergoing autophagy, LC3 dots increase. However, LC3 is accumulated in a cell even if degradation due to autophagy is inhibited. Therefore, an increase of the LC3 dots alone cannot be used to conclude that autophagy is enhanced. Therefore, enhancement and inhibition of autophagy can be distinguished by examining the maturation process of autophagosomes (process of fusion of autophagosomes with lysosomes, or degradation in autolysosomes after fusion).
A fluorescent signal (green) of GFP of the tfLC3 is attenuated in the environment within the lysosomes, but RFP (red) is stable in the same environment. By using this characteristic of tfLC3 that fluorescence becomes red due to quenching of GFP in the process of maturing autophagosomes into autolysosomes, a GFP/RFP ratio within a cell is analyzed in the tfLC3 test to determine whether or not a test sample added to a medium has an autophagy activation capability.
HeLa cells stably expressing tfLC3 were seeded in a 96-well plate (Perkin Elmer #6055302 Cell Carrier 96 Ultra Black 96 well, Clear Bottom, with Lid), and the HeLA cells were cultured in a growth medium [Growth medium (DMEM (Sigma D6546) supplemented with 10% FBS and 4 mM L-glutamine] in a 5% CO2 incubator for 24 hours. Then, the medium was replaced with a medium to which a test sample was added (see Table 1 for the final concentration of the test sample), followed by culturing for 24 hours.
As a negative control, cells cultured in a medium including 0.1% dimethyl sulfoxide (DMSO) were used.
The GFP/RFP value (may be referred to as a “ratio with respect to DMSO” hereinafter) measured in the cells cultured in the test sample-added medium was calculated by determining the GFP/RFP value measured in the negative control as 1.
A test sample that has a lower value for the GFP/RFP ratio than the value for the GFP/RFP ratio of the negative control can be determined as having an autophagy activation effect.

As for `COc1cc(OC)c2c(=O)cc(-c3ccc(OC)c(OC)c3)oc2c1` [2-(3,4-dimethoxyphenyl)-5,7-dimethoxy-4H-chromen-4-one], the “Ratio with respect to DMSO (GFP/RFP value, negative control taken as 1)” value came out at 0.847 and the “autophagy activation effect (in words)” value is on record as “had the autophagy activation effect”.
As to `COc1ccc2c(=O)c(OC)c(-c3cc(OC)c(OC)c(OC)c3)oc2c1` [3,7-dimethoxy-2-(3,4,5-trimethoxyphenyl)-4H-chromen-4-one], the “Ratio with respect to DMSO (GFP/RFP value, negative control taken as 1)” value was found to be 0.848 and the “autophagy activation effect (in words)” value is recorded as “had the autophagy activation effect”.
